Test results: patent publication US8173682B2, “Substituted pyridones as inhibitors of poly(ADP-ribose) polymerase (PARP)” (Aventis Pharmaceuticals Inc., priority 2004, dated 2012)

Target: recombinantly expressed human PARP-1 enzyme (Homo sapiens, UniProt P09874)
Test: PARP enzyme assay, Method B (tritium-labeled NAD incorporation)
Assay type: biochemical
Conditions: Method B; 200 μM NAD, room temperature 1 hour, pH 8.0; read-out: IC50 (μM)/Method B
Procedure, shortened: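 DNA-activated purified recombinant enzyme (2 μg/mL) incubated with test compound for 1 h at room temperature, pH 8.0, with 200 μM NAD plus tritiated NAD, DNA and histones. TCA-precipitated radiolabelled protein collected on glass-fibre filters and counted; IC50 is the concentration halving incorporation versus no-inhibitor control.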

Chain of recombinantly expressed human PARP-1 enzyme (P09874 whole entry): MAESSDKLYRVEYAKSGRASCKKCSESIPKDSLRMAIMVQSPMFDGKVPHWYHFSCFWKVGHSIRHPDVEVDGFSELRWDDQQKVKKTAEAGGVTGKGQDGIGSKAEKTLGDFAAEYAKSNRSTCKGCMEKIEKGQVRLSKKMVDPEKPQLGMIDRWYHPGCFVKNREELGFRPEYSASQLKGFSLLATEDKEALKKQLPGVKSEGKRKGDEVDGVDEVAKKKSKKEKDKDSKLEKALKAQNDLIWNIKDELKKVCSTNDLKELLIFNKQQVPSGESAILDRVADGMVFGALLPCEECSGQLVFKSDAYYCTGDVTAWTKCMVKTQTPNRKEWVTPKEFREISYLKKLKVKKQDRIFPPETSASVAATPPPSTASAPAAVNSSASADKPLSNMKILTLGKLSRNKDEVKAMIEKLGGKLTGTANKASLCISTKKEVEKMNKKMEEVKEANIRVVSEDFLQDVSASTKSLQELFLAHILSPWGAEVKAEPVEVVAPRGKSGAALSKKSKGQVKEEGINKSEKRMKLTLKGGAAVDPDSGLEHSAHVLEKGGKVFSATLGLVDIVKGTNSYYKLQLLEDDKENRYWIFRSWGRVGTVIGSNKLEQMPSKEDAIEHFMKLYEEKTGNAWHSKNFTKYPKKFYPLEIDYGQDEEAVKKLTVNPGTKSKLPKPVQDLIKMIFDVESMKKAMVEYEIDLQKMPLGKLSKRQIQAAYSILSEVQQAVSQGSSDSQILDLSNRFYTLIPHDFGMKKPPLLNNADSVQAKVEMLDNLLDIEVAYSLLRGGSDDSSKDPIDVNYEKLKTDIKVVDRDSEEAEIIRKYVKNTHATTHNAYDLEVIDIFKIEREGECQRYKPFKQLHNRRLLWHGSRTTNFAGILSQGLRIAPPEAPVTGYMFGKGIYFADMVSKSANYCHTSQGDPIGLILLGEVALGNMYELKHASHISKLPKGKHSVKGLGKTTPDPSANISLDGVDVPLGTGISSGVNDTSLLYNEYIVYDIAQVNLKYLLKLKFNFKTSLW

SMILES	IC50 [µM]
CCc1cc(-c2cncc(C(=O)NCc3nccs3)c2)c(C)[nH]c1=O [Example 250, 5′-Ethyl-2′-methyl-6′-oxo-1′,6′-dihydro-[3,3′]bipyridinyl-5-carboxylic acid (thiazol-2-ylmethyl)-amide]	0.64
CCc1cc(-c2cncc(C(=O)N3CCN(C(=O)C4CC4)CC3)c2)c(C)[nH]c1=O [Example 252, 5′-(4-Cyclopropanecarbonyl-piperazine-1-carbonyl)-5-ethyl-2-methyl-1H-[3,3′]bipyridinyl-6-one]	6.1
CCc1cc(-c2cncc(C(=O)NCCN3C(=O)CSC3=O)c2)c(C)[nH]c1=O [Example 254, 5′-Ethyl-2′-methyl-6′-oxo-1′,6′-dihydro-[3,3′]bipyridinyl-5-carboxylic acid [2-(2,4-dioxo-thiazolidin-3-yl)-ethyl]-amide]	11.7
CCc1cc(-c2cncc(C(=O)Nc3cc(C(C)(C)C)on3)c2)c(C)[nH]c1=O [Example 259, 5′-Ethyl-2′-methyl-6′-oxo-1′,6′-dihydro-[3,3′]bipyridinyl-5-carboxylic acid (5-tert-butyl-isoxazol-3-yl)-amide]	0.73
CCc1cc(-c2cncc(C(=O)N[C@H]3CC=CC[C@H]3C(N)=O)c2)c(C)[nH]c1=O [Example 260, 5′-Ethyl-2′-methyl-6′-oxo-1′,6′-dihydro-[3,3′]bipyridinyl-5-carboxylic acid ((1S,6R)-6-carbamoyl-cyclohex-3-enyl)-amide]	0.8
CCc1cc(-c2cncc(C(=O)NCCOC)c2)c(C)[nH]c1=O [Example 261, 5′-Ethyl-2′-methyl-6′-oxo-1′,6′-dihydro-[3,3′]bipyridinyl-5-carboxylic acid (2-methoxy-ethyl)-amide]	2.07
CCc1cc(-c2cncc(C(=O)NCC3CCC(C#N)CC3)c2)c(C)[nH]c1=O (centres unmarked) [Example 262, 5′-Ethyl-2′-methyl-6′-oxo-1′,6′-dihydro-[3,3′]bipyridinyl-5-carboxylic acid (4-cyano-cyclohexylmethyl)-amide]	2.22
CCc1cc(-c2cncc(C(=O)NCc3cccc(OC)c3)c2)c(C)[nH]c1=O [Example 263, 5′-Ethyl-2′-methyl-6′-oxo-1′,6′-dihydro-[3,3′]bipyridinyl-5-carboxylic acid 3-methoxy-benzylamide]	2.67

These reach a lower IC50. Values come first.

IC50 [µM]	SMILES
0.1	CCc1cc(-c2cncc(C(=O)Nc3ccccc3CC(N)=O)c2)c(C)[nH]c1=O [Example 251, 5′-Ethyl-2′-methyl-6′-oxo-1′,6′-dihydro-[3,3′]bipyridinyl-5-carboxylic acid (2-carbamoylmethyl-phenyl)-amide]
0.49	CCc1cc(-c2cncc(C(=O)NCC(O)c3ccccc3)c2)c(C)[nH]c1=O (centres unmarked) [Example 253, 5′-Ethyl-2′-methyl-6′-oxo-1′,6′-dihydro-[3,3′]bipyridinyl-5-carboxylic acid (2-hydroxy-2-phenyl-ethyl)-amide]
0.28	CCc1cc(-c2cncc(C(=O)NCc3ccc(S(N)(=O)=O)cc3)c2)c(C)[nH]c1=O [Example 255, 5′-Ethyl-2′-methyl-6′-oxo-1′,6′-dihydro-[3,3′]bipyridinyl-5-carboxylic acid 4-sulfamoyl-benzylamide]
0.45	CCc1cc(-c2cncc(C(=O)NCC(=O)c3ccc(OC)cc3)c2)c(C)[nH]c1=O [Example 256, 5′-Ethyl-2′-methyl-6′-oxo-1′,6′-dihydro-[3,3′]bipyridinyl-5-carboxylic acid [2-(4-methoxy-phenyl)-2-oxo-ethyl]-amide]
0.57	CCc1cc(-c2cncc(C(=O)NCC3CC(c4ccncc4)=NO3)c2)c(C)[nH]c1=O (centres unmarked) [Example 257, 5′-Ethyl-2′-methyl-6′-oxo-1′,6′-dihydro-[3,3′]bipyridinyl-5-carboxylic acid (3-pyridin-4-yl-4,5-dihydro-isoxazol-5-ylmethyl)-amide]
0.62	CCc1cc(-c2cncc(C(=O)Nc3cc(C(C)(C)C)[nH]n3)c2)c(C)[nH]c1=O [Example 258, 5′-Ethyl-2′-methyl-6′-oxo-1′,6′-dihydro-[3,3′]bipyridinyl-5-carboxylic acid (5-tert-butyl-1H-pyrazol-3-yl)-amide]
